Consider 7 compounds from US20240408130A1, “Combination of Silicon and Magnesium for the Prevention and Treatment of Muscle Cramps” (Bio Minerals NV, priority 2019, published 2024).

Several values for one entry are separate records, joined by “and”; a condition that tells them apart may be missing. Identical values can stand only once. Counter-ions that a name gives are not always drawn.

In data set [1] the test system is muscle cramps. The following applies: cited from earlier work.
Data set [2] has as its system muscle cramps. As to the kind of experiment: Comparative trial in 11 patients with frequent muscle cramps, cramp frequency recorded daily in a diary (Example 9). Format: in vivo, human. The protocol:
Seven female and 4 male patients (age 27 to 86 years, mean age 56 years) experiencing frequent muscle cramps participated in a comparative trial with the following design: • Period 1: During 1 week 11 patients either • (a) continued with their oral magnesium supplement (6 patients), or • (b) changed from their oral magnesium treatment (2 patients) to an oral magnesium supplement of 180 mg Mg/day (magnesium malate), or • (c) changed from “no magnesium” pretreatment (3 patients) to an oral magnesium supplement of 180 mg Mg/day (magnesium malate). • One patient had taken quinine sulfate prior to period 1. • Period 2: all patients (n=11) took 4 weeks 360 mg Mg/day (magnesium malate)+10 mg Si/day (choline-stabilized orthosilicic acid, ch-OSA®) • Parameters: patients recorded daily the frequency of cramps in a diary.

Data set [3] has as its system muscle cramps. As to the kind of experiment: Cross-over trial in patients with frequent muscle cramps, cramp frequency recorded daily in a diary (Example 8). Format: in vivo, human. How it is done:
Female and male patients (age 33 to 86 years) experiencing frequent muscle cramps participated in a cross-over trial. The design of the cross-over trial is as follows: • Period 1:2 weeks orally 400 mg Mg/day (magnesium citrate), • Period 2:2 weeks orally 400 mg Mg/day+10 mg Si/day (magnesium citrate and choline-stabilized orthosilicic acid), • Period 3:2 weeks orally 200 mg Mg/day+5 mg Si/day (magnesium citrate and choline-stabilized orthosilicic acid). • Parameters: patients recorded the frequency of cramps daily in a diary.

Data set [4] has as its system muscle cramps. The data set is described as follows: Case reports of patients with muscle cramps given magnesium alone or Biosil plus Promagnor (Examples 1-7). Format: in vivo, human. The following applies: patient, recurrent skeletal muscle cramps for 23 years; magnesium salt alone, 450 mg per day. The text has this: A patient had recurrent muscle cramps during a period of 23 years. Muscle cramps occurred in skeletal muscles in hands, lower arms and legs, as well as in intercostal muscles. […] Muscle cramps occurred during the day as well as during the night, at a frequency of several cramps per day. As a consequence, the muscle cramps prohibited working as a doctor and further prohibited swimming or any other sport. […] This ineffective result is consistent with the conclusions of Garrison (supra) and Young (supra), that magnesium supplementation is not effective in the treatment of muscle cramps.
The patient thereafter switched to a therapy comprising on a daily basis 10 mg stabilized silicic acid, wherein the silicic acid was in the form of orthosilicic acid and/or oligomers. The stabilizer was choline, which was administered at a daily dose of 200 mg. This combination is sold as Biosil® and is commercially available from Bio Minerals N.V., Destelbergen, Belgium. Use was made of the solid form of Biosil®. Two capsules per day were administered. The magnesium dose was 450 mg, and was in the form of magnesium phosphate, magnesium citrate, or magnesium bicarbonate. It was a dosage form of magnesium commercially supplied as Promagnor™ by Merck Consumer Healthcare nv, Overijse, Belgium. […]

For `NCC1(CC(=O)O)CCCCC1` [Gabapentin], the “effect on symptom scores” value in the data set on muscle cramps [1] (Class I clinical study, versus placebo) is “no difference was found between treatment and placebo with respect to any symptom score”.
As to `COc1ccc([C@@H]2Sc3ccccc3N(CCN(C)C)C(=O)[C@@H]2OC(C)=O)cc1` [diltiazem hydrochloride], the “effect on intensity of cramps” value in the data set with muscle cramps [1] (Class II study) is on record as “no effect on the intensity of cramps”.
With `O=S(=O)([O-])[O-].[Mg+2]` [magnesium sulphate], in the data set on muscle cramps [1] (Class II study, 300 mg dose, versus placebo), the “effect on number of cramps, severity, duration, sleep disturbance” value is recorded as “not superior to placebo for number of cramps, severity, duration or sleep disturbance”.
On to `[Mg]` [magnesium], for which the “Number of cramps Mean ± SE” value in the data set on muscle cramps [2] (Week 1: own oral magnesium supplement or 180 mg Mg/day (magnesium malate), n=11) is 18.9 ± 7.4^. Besides, in the data set with muscle cramps [2] (monotherapy of oral magnesium, Example 9), the “conclusion on relief of muscle cramps” value is “not effective in relieving muscle cramps”. In the data set on muscle cramps [1] (Garrison 2012 Cochrane review of seven trials, older adults with skeletal muscle cramps), the cramp prophylaxis result is listed as “unlikely that magnesium supplementation provides a clinically meaningful cramp prophylaxis to older adults”. In addition, the “effect on leg cramps in pregnancy” value in the data set on muscle cramps [1] (Leal de Araújo 2020, oral magnesium supplementation during pregnancy) is “did not reduce the occurrence and frequency of episodes of leg cramps”. Moreover, the “conclusion on frequency of cramps” value with muscle cramps [3] (magnesium alone versus combination with bioavailable silicon supplement, Example 8) was “not effective in reducing the frequency of cramps compared to the combination”. For the same compound, the “effect on recurrent muscle cramps” value in the data set on muscle cramps [4] is “not effective and did not provide any relief or inhibition of the muscle cramps”.
Consider `CCN(CC)CCOC(=O)C(Cc1cccc2ccccc12)CC1CCCO1` (stereo not drawn) [naftidrofuryl oxalate], for which the “effect on cramps and sleep disturbance” value in the data set with muscle cramps [1] (literature study) is listed as “no effect on the mean number of cramps, number of nights with cramps or sleep disturbance”.
As to `C=C[C@H]1C[N@@]2CC[C@H]1C[C@H]2[C@H](O)c1ccnc2ccc(OC)cc12` [quinine], the side effects result in the data set on muscle cramps [1] (reported in the literature (Katzberg 2010; FDA alert 2012)) was “common and serious side effects”. In the data set on muscle cramps [1] (systematic reviews and randomized clinical trials (Young 2015), versus placebo), the “effect on idiopathic leg cramps” value was “may reduce the frequency of idiopathic leg cramps at night compared to placebo”.
As for magnesium citrate [Mg], in the data set on muscle cramps [1] (Class II study, 900 mg), the “effect on number of cramps” value is “could not conclude that there was a significant improvement in the number of cramps”. Also, the “cramps/day, individual patients” value in the data set with muscle cramps [3] (A: 2 weeks 400 mg Mg/day orally (magnesium citrate), patients 1-6, one value per patient) is 0.43 cramps/day (2×) and 1.07 cramps/day and 0.36 cramps/day and 1.79 cramps/day and 0.5 cramps/day. The “cramps/day, Mean” value in the data set with muscle cramps [3] (A: 2 weeks 400 mg Mg/day orally, mean of 6 patients) came out at 0.76 cramps/day.
